Experimental findings from ChEMBL document CHEMBL5034011, “Discovery and Optimization of a 4-Aminopiperidine Scaffold for Inhibition of Hepatitis C Virus Assembly” (J Med Chem, 2021) are described below.

In brackets after ≈: the same amount, converted by molar mass.

Data set [1] is described as follows: Tmax in CD-1 mouse liver at 10 mg/kg. In kind it is ADME, organism-based.
A short description of data set [2]: Tmax in CD-1 mouse brain at 10 mg/kg. In kind it is ADME, organism-based.
Data set [3] can be described thus: AUClast in CD-1 mouse plasma at 10 mg/kg. Also on record: time 0 - last, dose 10 mg/kg. In kind it is ADME, organism-based.
Data set [4] is described as follows: Ratio of AUClast in liver to plasma in CD-1 mouse at 10 mg/kg. In kind it is ADME, organism-based.
The nature of data set [5]: Ratio of AUClast in brain to plasma in CD-1 mouse at 10 mg/kg. In kind it is ADME, organism-based.
Data set [6] in a line: Cmax in CD-1 mouse plasma at 10 mg/kg. In kind it is ADME, organism-based. Also on record: dose 10 mg/kg.
Data set [7] is described as follows: AUClast in CD-1 mouse brain at 10 mg/kg. Also on record: time 0 - last, dose 10 mg/kg. In kind it is ADME, organism-based.
Data set [8] can be described thus: Kinetic aqueous solubility of compound by pION uSOL method at pH 7.4. The note with it: buffer.
Data set [9] in a line: Cmax in CD-1 mouse liver at 10 mg/kg. Also on record: dose 10 mg/kg. In kind it is ADME, organism-based.
Data set [10] can be described thus: Tmax in CD-1 mouse plasma at 10 mg/kg. In kind it is ADME, organism-based.
The nature of data set [11]: AUClast in CD-1 mouse liver at 10 mg/kg. In kind it is ADME, organism-based. Also on record: time 0 - last, dose 10 mg/kg.
Data set [12] can be described thus: Permeability of the compound by PAMPA method. The note with it: for Papp: read-out: permeability. In kind it is ADME.
Data set [13] can be described thus: AUClast in CD-1 mouse liver at 1 mg/kg. In kind it is ADME, organism-based. Also on record: time 0 - last, dose 1 mg/kg.
The nature of data set [14]: Tmax in CD-1 mouse brain at 1 mg/kg. In kind it is ADME, organism-based.
Data set [15] can be described thus: Ratio of AUClast in liver to plasma in CD-1 mouse at 1 mg/kg. In kind it is ADME, organism-based.
A short description of data set [16]: AUClast in CD-1 mouse brain at 1 mg/kg. In kind it is ADME, organism-based. Also on record: time 0 - last, dose 1 mg/kg.
The nature of data set [17]: Cmax in CD-1 mouse liver at 1 mg/kg. Further details: dose 1 mg/kg. In kind it is ADME, organism-based.
A short description of data set [18]: Tmax in CD-1 mouse liver at 1 mg/kg. In kind it is ADME, organism-based.
Data set [19] is described as follows: Cmax in CD-1 mouse brain at 1 mg/kg. Further details: dose 1 mg/kg. In kind it is ADME, organism-based.
Data set [20] in a line: Tmax in CD-1 mouse plasma at 1 mg/kg. In kind it is ADME, organism-based.
A short description of data set [21]: AUClast in CD-1 mouse plasma at 1 mg/kg. In kind it is ADME, organism-based. Also on record: time 0 - last, dose 1 mg/kg.
Data set [22] is described as follows: Ratio of AUClast in brain to plasma in CD-1 mouse at 1 mg/kg. In kind it is ADME, organism-based.

Consider `Clc1cc(CN(C2CCNCC2)C2CC(c3ccc(Br)cc3)C2)ccc1Br` (stereo not drawn), for which the Tmax in data set [1] came out at 1 h; in data set [2], 24 h; in [10] it was 0.5 h. For the same compound, the figures for the AUC(0-t) in data set [3], in data set [7] and in data set [11] were 10500 ng·h/mL, 56800 ng·h/mL and 793000 ng·h/mL, respectively. In addition, the concentration ratio (Kp) was determined as 76 in [4] and 54 in data set [5]. Besides, the Cmax in [6] was 759 ng/mL; in data set [9], 57400 ng/mL. For the same compound, the solubility (kinetic) in data set [8] was determined as 3.32 µg/mL (≈ 6.48 µM). Moreover, the Papp in [12] came out at 32 ×10⁻⁶ cm/s.
Consider `Cc1ccc(C2CC(N(Cc3ccc(Br)c(Cl)c3)C3CCCNC3)C2)cc1` (stereo not drawn), for which the kinetic solubility in data set [8] turned out to be 13.3 µg/mL (≈ 29.7 µM).
With `Cc1ccc([C@H]2C[C@@H](N(Cc3ccc(Br)c(Cl)c3)C3CCNCC3)C2)cc1`, the solubility (kinetic) in data set [8] was 9.71 µg/mL (≈ 21.7 µM). The solubility kinetic values of the last two compounds are within 1.5-fold of each other.
Consider `CC(=O)N1CCC(N(Cc2ccc(Br)c(Cl)c2)C2CC(c3ccc(C)cc3)C2)CC1` (stereo not drawn), for which the solubility (kinetic) in [8] was less than 1 µg/mL. In [12], the permeability was 1909 10^-6 cm/s.
`Clc1cc(CN(C2CCNCC2)C2CC(c3cccc(Br)c3)C2)ccc1Br` (stereo not drawn) registered a kinetic solubility in data set [8] of 3.94 µg/mL (≈ 7.68 µM). Besides, the Papp in data set [12] stood at 14 ×10⁻⁶ cm/s.
Take `Cc1ccc(C2CC(N(Cc3ccc(Br)c(Cl)c3)C3CCC(N)CC3)C2)cc1` (stereo not drawn): the Papp in data set [12] was 818 ×10⁻⁶ cm/s.
Take `Cc1ccc(C2CC(N(Cc3ccc(Br)c(Cl)c3)C3CC4CNC3C4)C2)cc1` (stereo not drawn): the solubility (kinetic) in [8] was 7.26 µg/mL (≈ 15.8 µM). In addition, the Papp in data set [12] was 123 ×10⁻⁶ cm/s.
Consider `Fc1ccc(C2CC(N(Cc3ccc(Br)c(Cl)c3)C3CCNCC3)C2)cc1` (stereo not drawn), for which, in data set [12], the Papp was 398 ×10⁻⁶ cm/s.
Compound `Cc1ccc(C2CC(N(Cc3ccc(Br)c(Cl)c3)C3CCOCC3)C2)cc1` (stereo not drawn) registered a solubility (kinetic) in data set [8] of less than 1 µg/mL. Further, the Papp in [12] was less than 6.4 ×10⁻⁶ cm/s.
In [8], `Cc1ccc(C2CC(N(Cc3ccc(Br)c(Cl)c3)C3CCN(C(C)C)CC3)C2)cc1` (stereo not drawn) gave a solubility (kinetic) of 15.4 µg/mL (≈ 31.4 µM). Besides, the Papp in data set [12] was less than 23.1 ×10⁻⁶ cm/s.
In data set [8], `Cc1ccc(C2CC(N(Cc3ccc(Br)c(Cl)c3)C3CCNCC3)C2)cc1` (stereo not drawn) came in with a solubility (kinetic) of 18.2 µg/mL (≈ 40.6 µM). Further, the Papp in [12] was determined as 806 ×10⁻⁶ cm/s.
In turn, `Cc1ccc(C2CC(N(Cc3ccc(Br)c(Cl)c3)C3CC4CCC(C3)N4)C2)cc1` (stereo not drawn) showed a kinetic solubility in data set [8] of 11.1 µg/mL (≈ 23.4 µM).
In [8], `Cc1ccc(C2CC(N(Cc3ccc(Br)c(Cl)c3)C3CCN(C)CC3)C2)cc1` (stereo not drawn) had a solubility (kinetic) of 22.9 µg/mL (≈ 49.7 µM). Further, the Papp in data set [12] came to 274 ×10⁻⁶ cm/s.
In [8], `Cc1ccc(C2CC(N(Cc3ccc(Br)c(Cl)c3)C3C4CCC3CNC4)C2)cc1` (stereo not drawn) yielded a kinetic solubility of less than 1 µg/mL.
Compound `Cc1ccc(C2CC(N(Cc3ccc(Br)c(Cl)c3)C3CCNC3)C2)cc1` (stereo not drawn) had a kinetic solubility in data set [8] of 23.2 µg/mL (≈ 53.5 µM).
As for `Cc1ccc([C@H]2C[C@H](N(Cc3ccc(Br)c(Cl)c3)C3CCNCC3)C2)cc1`, the results for the exposure AUC(0-t) in data set [13], in data set [16] and in data set [21] were 9570 ng·h/mL, 3000 ng·h/mL and 275 ng·h/mL, respectively. Further, the Tmax in [14] came to 1.5 h; in [18] it was 2 h; in data set [20], 0.167 h. In addition, the Kp in [15] turned out to be 35; in data set [22], 11. In addition, the peak concentration (Cmax) in data set [17] was 1850 ng/mL; in data set [19] it was 153 ng/mL. For the same compound, the solubility (kinetic) in [8] amounted to 1.09 µg/mL (≈ 2.43 µM).
`Clc1cccc(C2CC(N(Cc3ccc(Br)c(Cl)c3)C3CCNCC3)C2)c1` (stereo not drawn) showed a kinetic solubility in [8] of 4 µg/mL (≈ 8.54 µM).
For `Cc1cccc(C2CC(N(Cc3ccc(Br)c(Cl)c3)C3CCNCC3)C2)c1` (stereo not drawn), the Papp in [12] was determined as 265 ×10⁻⁶ cm/s.
In the case of `Cc1ccc(C2CC(N(Cc3ccc(Br)c(Cl)c3)C3CCCNCC3)C2)cc1` (stereo not drawn), the solubility (kinetic) in data set [8] came to 25.6 µg/mL (≈ 55.5 µM). In data set [12], the Papp was 666 ×10⁻⁶ cm/s.
